Test results as given in PubChem BioAssay AID192 (DTP/NCI, 2004).
Where “and” joins values, the source holds several entries; their conditions need not be identical. Equal values may be shown once. Toxic doses and inconclusive results are not listed.

Tested on: BDF1 mice, B16 melanoma ip, median survival T/C
Experiment: NCI In Vivo Anticancer Drug Screen. Data for tumor model B16 Melanoma (intraperitoneal) in B6D2F1 (BDF1) mice
Details: endpoint: median survival time, higher = longer survival
Procedure, shortened: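 Read-out: survival or tumor size, given as treated/control ratio. Controls received vehicle only; animals bore transplantable tumors.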

With `O=C1c2ccccc2C(=O)c2c(NCCNCCO)ccc(NCCNCCO)c21` the T/C (dose: 0.25 mg/kg/injection, schedule: Q01DX009 (ip), vehicle: saline with Tween-80) was 124 % of control, the T/C (dose: 0.25 mg/kg/injection, schedule: Q01DX009 (ip), vehicle: saline) was 110 % of control and 111 % of control and the T/C (dose: 0.5 mg/kg/injection, schedule: Q01DX009 (ip), vehicle: saline with Tween-80) was 118 % of control. The T/C (dose: 0.5 mg/kg/injection, schedule: Q01DX009 (ip), vehicle: saline) was 118 % of control, the T/C (dose: 1.0 mg/kg/injection, schedule: Q01DX009 (ip), vehicle: other) was 124 % of control and the T/C (dose: 1.0 mg/kg/injection, schedule: Q01DX009 (ip), vehicle: saline with Tween-80) was 152 % of control. The T/C (dose: 1.0 mg/kg/injection, schedule: Q02DX009 (ip), vehicle: saline) was 159 % of control, the T/C (dose: 1.0 mg/kg/injection, schedule: Q03HX016 (ip), vehicle: acid diluted with saline) was 161 % of control and the T/C (dose: 1.0 mg/kg/injection, schedule: Q03HX024 (ip), vehicle: acid diluted with saline) was 167 % of control. The T/C (dose: 2.0 mg/kg/injection, schedule: Q01DX009 (ip), vehicle: acid diluted with saline) was 183 % of control and 208 % of control, the T/C (dose: 2.0 mg/kg/injection, schedule: Q01DX009 (ip), vehicle: saline with Tween-80) was 175 % of control and the T/C (dose: 2.0 mg/kg/injection, schedule: Q01DX009 (ip), vehicle: water) was 168 % of control. The T/C (dose: 2.0 mg/kg/injection, schedule: Q03HX008 (ip), vehicle: acid diluted with saline) was 157 % of control, the T/C (dose: 2.0 mg/kg/injection, schedule: Q03HX016 (ip), vehicle: acid diluted with saline) was 202 % of control and the T/C (dose: 2.0 mg/kg/injection, schedule: Q03HX024 (ip), vehicle: acid diluted with saline) was 209 % of control. For the same compound, the T/C (dose: 2.0 mg/kg/injection, schedule: Q03HX024 (ip), vehicle: saline) was 123 % of control, the T/C (dose: 4.0 mg/kg/injection, schedule: Q01DX005 (ip), vehicle: saline) was 151 % of control and the T/C (dose: 4.0 mg/kg/injection, schedule: Q01DX005 (iv), vehicle: saline) was 106 % of control. For the same compound, the T/C (dose: 4.0 mg/kg/injection, schedule: Q01DX009 (ip), vehicle: Klucel (hydroxypropylcellulose) (HPC)) was 180 % of control, the T/C (dose: 4.0 mg/kg/injection, schedule: Q01DX009 (ip), vehicle: saline with Tween-80) was 154 % of control and 188 % of control and the T/C (dose: 4.0 mg/kg/injection, schedule: Q01DX009 (ip), vehicle: water) was 169 % of control and 172 % of control and 211 % of control. For the same compound, the T/C (dose: 4.0 mg/kg/injection, schedule: Q01DX009 (sc), vehicle: acid diluted with saline) was 121 % of control, the T/C (dose: 4.0 mg/kg/injection, schedule: Q01DX009 (sc), vehicle: saline) was 108 % of control and the T/C (dose: 4.0 mg/kg/injection, schedule: Q02DX009 (ip), vehicle: saline) was 170 % of control and 188 % of control. For the same compound, the T/C (dose: 4.0 mg/kg/injection, schedule: Q03HX008 (ip), vehicle: acid diluted with saline) was 206 % of control, the T/C (dose: 4.0 mg/kg/injection, schedule: Q03HX016 (ip), vehicle: acid diluted with saline) was 204 % of control and the T/C (dose: 4.0 mg/kg/injection, schedule: Q03HX024 (ip), vehicle: saline) was 207 % of control. The T/C (dose: 8.0 mg/kg/injection, schedule: Q01DX005 (ip), vehicle: acid diluted with saline) was 192 % of control, the T/C (dose: 8.0 mg/kg/injection, schedule: Q01DX005 (iv), vehicle: saline) was 106 % of control and the T/C (dose: 8.0 mg/kg/injection, schedule: Q01DX009 (ip), vehicle: Klucel (hydroxypropylcellulose) (HPC)) was 158 % of control. The T/C (dose: 8.0 mg/kg/injection, schedule: Q01DX009 (ip), vehicle: other) was 180 % of control, the T/C (dose: 8.0 mg/kg/injection, schedule: Q01DX009 (ip), vehicle: saline with Tween-80) was 159 % of control and 190 % of control and the T/C (dose: 8.0 mg/kg/injection, schedule: Q01DX009 (oral), vehicle: acid diluted with saline) was 98 % of control. The T/C (dose: 8.0 mg/kg/injection, schedule: Q01DX009 (sc), vehicle: acid diluted with saline) was 111 % of control, the T/C (dose: 8.0 mg/kg/injection, schedule: Q01DX009 (sc), vehicle: saline) was 123 % of control and the T/C (dose: 8.0 mg/kg/injection, schedule: Q02DX009 (ip), vehicle: saline) was 191 % of control. For the same compound, the T/C (dose: 8.0 mg/kg/injection, schedule: Q03HX008 (ip), vehicle: acid diluted with saline) was 192 % of control, the T/C (dose: 8.0 mg/kg/injection, schedule: Q04DX003 (ip), vehicle: acid diluted with saline) was 195 % of control and the T/C (dose: 8.0 mg/kg/injection, schedule: Q08DX002 (ip), vehicle: acid diluted with saline) was 178 % of control. For the same compound, the T/C (dose: 8.0 mg/kg/injection, schedule: Q08DX002 (ip), vehicle: saline) was 119 % of control, the T/C (dose: 16.0 mg/kg/injection, schedule: Q01DX001 (ip), vehicle: acid diluted with saline) was 156 % of control and the T/C (dose: 16.0 mg/kg/injection, schedule: Q01DX001 (oral), vehicle: saline) was 108 % of control. The T/C (dose: 16.0 mg/kg/injection, schedule: Q01DX001 (sc), vehicle: acid diluted with saline) was 102 % of control, the T/C (dose: 16.0 mg/kg/injection, schedule: Q01DX005 (ip), vehicle: saline) was 166 % of control and the T/C (dose: 16.0 mg/kg/injection, schedule: Q01DX005 (iv), vehicle: saline) was 116 % of control.
